Patent US20030032003A1, “IN VIVO SELECTION” (priority 2000, published 2003)
Read-outs that look alike come from different tables or passages of the source. Marks after values point to notes of the source that are not given here.

What was measured:
Hprt +/+ mice = test: Histopathological analysis of mouse tissues after 6TG
[1] = test system: embryos of C57BL6/J Hprt −/− females mated with wildtype Hprt +/o males; format: in vivo; conditions: for Offspring ♀ (Hprt +/−, sensitive) / Offspring ♂ (Hprt −/o, resistant): three i.p. injections of 20 mg/kg in 24 hrs intervals during gestation
Procedure: The animals were housed in standard plastic microisolator cages with wood-chip bedding. The room was maintained at 22° C. and 70% humidity and the light cycle was 12 hours. Water and mouse diet No:5015 (PMI Feeds, Inc., St. Louis, Mo.) was supplied ad libitum. All housing and treatment protocols were reviewed and approved by an institutional Animal Care Committee.
Hprt −/− females (5-8 weeks old) were mated with wildtype males and the presence of vaginal plugs was examined daily. The day when a plug appeared was considered to be day 1 of pregnancy and the male was separated. The pregnant dams were treated with three i.p. injections of 6-thioguanine (20 mg/kg) or in control matings with saline starting […] in 24 hrs intervals. Pregnant mice were examined daily until term. The gender of offsprings was first determined 24 days after delivery and confirmed at the time of weaning (4 weeks of age).
An experiment was designed to investigate whether one could select against Hprt wildtype embryos with 6-thioguanine. Female mice C57BL6/J Hprt −/− were mated with wildtype Hprt +/o males. Since the Hprt gene is located on the X chromosome the resulting male offspring will be Hprt −/o and therefore resistant to 6-thioguanine (6TG). On the other hand, female offspring will be Hprt +/− and thus sensitive to 6TG. 6TG (Sigma) was injected i.p. in three subsequential doses (20 mg/kg each) in 24 hrs intervals starting on the third day of gestation. Mice were screened two times daily for possible toxic effects.

[2] = test system: Hprt −/− (Hprt deficient) mice; test: Acute toxicity of 6TG, approximate lethal dose; conditions: for body weight, percentage of the body weight before the experiment / survival: Hprt −/−, 14 days
[3] = test system: Hprt+/+ mice, recipients of Hprt−/− bone marrow and non-recipient controls
Procedure: Recipient Hprt+/+ female mice were irradiated with 950 cGy of X-rays 24 hours before transplantation.
Briefly, bone marrow was flushed from femora and tibiae with 2 ml of Dulbecco's modified Eagle medium (D-MEM) supplemented with 10% of FBS and 100 units/ml penicillin, 100 mg/ml streptomycin. The isolated cells from the donor mouse were washed with PBS and injected into the tail vein of female Hprt +/+ recipients.
6TG (2-amino-6-mercaptopurine Sigma) was suspended in sterile PBS with a final concentration of 0.5 mg/ml prior to each i.p. application. All mice, recipients of bone marrow transplant and non-recipient controls, were treated with the same 6TG dose regimen. All mice were treated one hour after transplantation of recipients with an initial dose of 6TG at 10 mg/kg body weight. After 7 days the animals were treated with 4 doses of 5 mg/kg b.w. in 48 hrs intervals and followed with 5 days of recovery period.
This regimen was repeated 2 times with doses 5 mg/kg and 3 times with doses of 10 mg/kg with 5 days recovery periods in between treatments. Another control group of transplanted animals was treated with the same amount of sterile PBS.

[4] = Hprt +/+, 6TG lethal 50-720 mg/kg, 7 mice
[5] = Hprt +/+, 6TG sublethal 25 mg/kg, 2 mice

Nc1nc(S)c2[nH]cnc2n1 [6TG, 2-amino-6-merkaptopurine]
Intestinal epithelium Necrosis, severity grade (Hprt +/+ mice; Hprt +/+, 720 mg/kg i.p.): 1 | Liver Atrophy necrosis, severity grade (Hprt +/+ mice; Hprt +/+, 720 mg/kg i.p.): 2 | Liver Centrilobular hypertrophy, severity grade (Hprt +/+ mice; Hprt +/+, 720 mg/kg i.p.): 1 | Spleen Lymphoid depletion, severity grade (Hprt +/+ mice; Hprt +/+, 720 mg/kg i.p.): 3 | Spleen Necrosis, severity grade (Hprt +/+ mice; Hprt +/+, 720 mg/kg i.p.): 3 | Bone marrow Depletion, average of lesion severity grade (Hprt +/+ mice; [4]): 3.7 ± 0.5 | Bone marrow Necrosis, average of lesion severity grade (Hprt +/+ mice; [4]): 3.4 ± 0.5 | Gastric epithelium Atrophy, average of lesion severity grade (Hprt +/+ mice; [4]): 1.7 ± 0.9 | Gastric epithelium Necrosis, average of lesion severity grade (Hprt +/+ mice; [4]): 1.6 ± 0.9 | Intestinal epithelium Atrophy, average of lesion severity grade (Hprt +/+ mice; [4]): 1.7 ± 0.9 | Intestinal epithelium Necrosis, average of lesion severity grade (Hprt +/+ mice; [4]): 1.6 ± 1.0 | Liver Atrophy necrosis, average of lesion severity grade (Hprt +/+ mice; [4]): 1.9 ± 0.7 | Liver Centrilobular hypertrophy, average of lesion severity grade (Hprt +/+ mice; [4]): 1.0 ± 0.8 | Liver Fatty change, average of lesion severity grade (Hprt +/+ mice; [4]): 0.7 ± 0.9 | Spleen Lymphoid depletion, average of lesion severity grade (Hprt +/+ mice; [4]): 1.9 ± 0.9 | Spleen Necrosis, average of lesion severity grade (Hprt +/+ mice; [4]): 2.0 ± 1.3 | Bone marrow Depletion, average of lesion severity grade (Hprt +/+ mice; [5]): 3.5 ± 0.5 | Bone marrow Necrosis, average of lesion severity grade (Hprt +/+ mice; [5]): 0.5 ± 0.5 | Liver Atrophy necrosis, average of lesion severity grade (Hprt +/+ mice; [5]): 2.5 ± 0.5 | starting dose of liver lesions (necrosis and atrophy of hepatocytes) (Hprt +/+ mice; Hprt wildtype mice): 25 mg/kg | lowest dose with liver centrilobular hypertrophy (Hprt +/+ mice; wildtype mice): 150 mg/kg | lowest dose with liver fatty change (Hprt +/+ mice; wildtype mice): 225 mg/kg | starting dose of atrophy and/or necrosis of gastrointestinal epithelium (Hprt +/+ mice; wildtype mice): 50 mg/kg | Offspring ♀ (Hprt +/−, sensitive) ([1]; Dam 1T): 0 | Offspring ♂ (Hprt −/o, resistant) ([1]; Dam 1T): 4 | Offspring ♀ (Hprt +/−, sensitive) ([1]; Dam 2T): 0 | Offspring ♂ (Hprt −/o, resistant) ([1]; Dam 2T): 2 | toxicity to the dams ([1]; Hprt −/− dams, three doses 20 mg/kg i.p.): did not cause any apparent toxic symptoms or discomfort to the dams | male offspring delivered ([1]; two 6TG treated dams together): 6 | approximate lethal dose ([2]; Hprt −/− animals, single i.p.): 1148 mg/kg | increase of approximate lethal dose over the wildtype strain ([2]; Hprt −/− vs wildtype): 23 fold | body weight, percentage of the body weight before the experiment ([2]; 25 mg/kg single i.p.): 101% | survival ([2]; 25 mg/kg single i.p.): surv (surv, animals survived the 14 days period) | body weight, percentage of the body weight before the experiment ([2]; 50 mg/kg single i.p.): 102% | survival ([2]; 50 mg/kg single i.p.): surv (surv, animals survived the 14 days period) | body weight, percentage of the body weight before the experiment ([2]; 100 mg/kg single i.p.): 103% | survival ([2]; 100 mg/kg single i.p.): surv (surv, animals survived the 14 days period) | body weight, percentage of the body weight before the experiment ([2]; 150 mg/kg single i.p.): 101% | survival ([2]; 150 mg/kg single i.p.): surv (surv, animals survived the 14 days period) | body weight, percentage of the body weight before the experiment ([2]; 225 mg/kg single i.p.): 100% | survival ([2]; 225 mg/kg single i.p.): surv (surv, animals survived the 14 days period) | body weight, percentage of the body weight before the experiment ([2]; 338 mg/kg single i.p.): 101% | survival ([2]; 338 mg/kg single i.p.): surv (surv, animals survived the 14 days period) | body weight, percentage of the body weight before the experiment ([2]; 508 mg/kg single i.p.): 99% | survival ([2]; 508 mg/kg single i.p.): surv (surv, animals survived the 14 days period) | body weight, percentage of the body weight before the experiment ([2]; 720 mg/kg single i.p.): 101% | survival ([2]; 720 mg/kg single i.p.): surv (surv, animals survived the 14 days period) | body weight, percentage of the body weight before the experiment ([2]; 1148 mg/kg single i.p.): 69% | survival ([2]; 1148 mg/kg single i.p.): 8.5 days | body weight, percentage of the body weight before the experiment ([2]; 1714 mg/kg single i.p.): 93% | survival ([2]; 1714 mg/kg single i.p.): 4 days | body weight, percentage of the body weight before the experiment ([2]; 2571 mg/kg single i.p.): 95% | survival ([2]; 2571 mg/kg single i.p.): 4 days | toxic effect of 6TG ([3]; 6TG treated bone marrow (BM) recipients): did not show any apparent toxic effect | body weight decrease ([3]; 6TG treated bone marrow recipients, first week after transplantation): about 10% | Body weight ([3]; Bone marrow recipients +6TG, week 1): 91 | Body weight ([3]; Bone marrow recipients +6TG, week 2): 89 | Body weight ([3]; Bone marrow recipients +6TG, week 3): 90 | Body weight ([3]; Bone marrow recipients +6TG, week 4): 90 | Body weight ([3]; Bone marrow recipients +6TG, week 5): 88 | Body weight ([3]; Bone marrow recipients +6TG, week 6): 93 | Body weight ([3]; Controls (non-recipients) +6TG, week 1): 99 | Body weight ([3]; Controls (non-recipients) +6TG, week 2): 100 | Body weight ([3]; Controls (non-recipients) +6TG, week 3, these mice died): 86* | Body weight ([3]; Controls (non-recipients) +6TG, week 4, these mice died): 79* | loss of body weight ([3]; non-recipient controls, during 3 weeks of 6TG treatment): 25%
